Where only a bound is given, the exact number is not on record here.

The source of these data is BindingDB's records for patent US10919885 (Yumanity Therapeutics, 2021).

One test has as its target T1, Stearoyl-CoA desaturase (Homo sapiens, UniProt O00767).
T1 sequence (O00767 whole entry): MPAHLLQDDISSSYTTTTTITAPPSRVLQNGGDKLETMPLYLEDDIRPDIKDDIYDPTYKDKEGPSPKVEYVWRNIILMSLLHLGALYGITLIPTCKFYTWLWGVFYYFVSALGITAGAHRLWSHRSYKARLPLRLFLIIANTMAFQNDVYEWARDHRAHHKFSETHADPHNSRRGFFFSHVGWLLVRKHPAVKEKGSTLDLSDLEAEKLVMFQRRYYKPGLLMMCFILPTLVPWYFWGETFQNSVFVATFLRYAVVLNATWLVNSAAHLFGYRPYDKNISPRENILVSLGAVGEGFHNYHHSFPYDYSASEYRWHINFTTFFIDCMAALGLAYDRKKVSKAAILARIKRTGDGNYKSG
In words: Compound Profiling Methods. The protocol:
(§1) Strains expressing SCD1 or SCD5 as the sole desaturase, the human SCD1 and SCD5 genes were used to evaluate inhibition of SCD1/SCD5 using reduced growth as a surrogate for SCD inhibition. These yeast strains express human SCD1 or SCD5 from a plasmid harbored in a strain in which the yeast OLE1 gene is deleted.All compound profiling experiments were performed using the same basic protocol. Yeast were cultured using standard techniques in complete synthetic media lacking uracil and containing yeast nitrogen base supplemented with 2% (w/v) glucose (SD-Ura) Starter cultures were inoculated in 3 mL SD-Ura media containing 0.01% tween and 0.2 mM palmitoleic and oleic acid. Cultures were incubated overnight in a 30° C. shaker incubator (225 rpm). Saturated morning cultures were centrifuged, washed in SD-Ura media lacking TWEEN-20 and fatty acids, and then diluted 1:20 in fresh SD-Ura media also lacking TWEEN-20 and fatty acids. […] Compound administration was performed in two separate steps. First, 15 μL of SD-Ura was dispensed into clear 384-well assay plates using a MULTIDROP Combi reagent dispenser. […] The cultures described above were centrifuged and washed with media lacking TWEEN-20 or oleic and palmitoleic acids. Cultures were then resuspended at a 2-fold concentrated OD600 of 0.02 (final OD600 of 0.0.01) in SD-Ura. […] Yeast growth was monitored by reading the OD600 of each well using a microplate reader (Perkin Elmer EnVision ). Data were analyzed as follows.

Test [1] has as its target T2, Stearoyl-CoA desaturase 5 (Homo sapiens, UniProt Q86SK9).
T2 sequence (Q86SK9 whole entry): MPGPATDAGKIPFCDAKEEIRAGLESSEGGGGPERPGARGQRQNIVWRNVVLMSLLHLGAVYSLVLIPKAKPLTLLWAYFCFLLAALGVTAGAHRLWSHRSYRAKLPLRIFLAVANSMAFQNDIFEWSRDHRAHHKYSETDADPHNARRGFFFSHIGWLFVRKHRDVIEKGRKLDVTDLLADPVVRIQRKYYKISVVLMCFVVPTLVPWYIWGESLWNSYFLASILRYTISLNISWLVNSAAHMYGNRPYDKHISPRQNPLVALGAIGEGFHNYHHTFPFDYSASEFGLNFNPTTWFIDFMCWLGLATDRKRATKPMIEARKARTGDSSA
Nature of the test: Compound Profiling Methods. The protocol: as §1

For orientation: IC50 means the concentration at which inhibition is half-maximal. A higher IC50 goes with weaker potency in that assay. `O=C(Nc1cnn(Cc2ccccc2)c1)c1cc(-c2ccc3c(c2)OCO3)on1` [US10919885, Compound No. 6]: on Stearoyl-CoA desaturase, the IC50 was above 45 µM.
`O=C(Nc1cnn(Cc2cccc(Cl)c2)c1)c1cc(-c2ccccn2)on1` [US10919885, Compound No. 57]: the IC50 (in test [1]; on Stearoyl-CoA desaturase) was above 45 µM in each case.
In the case of `CC(C)(C)OC(=O)N1CCC(NC(=O)c2cc(-c3ccco3)on2)CC1` [US10919885, Compound No. 287], the IC50 (in test [1]; against Stearoyl-CoA desaturase) was above 45 µM throughout.
Consider `N#Cc1ccc(C2CCN(C(=O)c3cc(-c4ccc5c(c4)OCO5)on3)CC2)cc1` [US10919885, Compound No. 291], for which the IC50 in test [1] is 4.75 µM; at Stearoyl-CoA desaturase, above 45 µM.
Turning to `O=C(c1cc(-c2ccc3c(c2)OCO3)on1)N1CCC(c2ccc(F)c(F)c2)CC1` [US10919885, Compound No. 292], the IC50 was 1.82 µM in test [1] and above 45 µM against Stearoyl-CoA desaturase.
As for `CC(C)(C)OC(=O)N1CCC2(CCN(C(=O)c3cc(-c4ccccc4)on3)C2)C1` (stereo not drawn) [US10919885, Compound No. 295], the IC50 is 29.4 µM in test [1] and above 45 µM at Stearoyl-CoA desaturase.
In the case of `CC(C)(C)OC(=O)N1CCC(NC(=O)c2cc(-c3ccco3)on2)C1` (stereo not drawn) [US10919885, Compound No. 332], the IC50 (in test [1]; at Stearoyl-CoA desaturase) was above 45 µM each time.
On Stearoyl-CoA desaturase, `COc1ccc(C2CCCN2C(=O)c2cc(-c3ccccc3OC)on2)cc1` (stereo not drawn) [US10919885, Compound No. 379] showed an IC50 above 45 µM.
Take `O=C(c1noc2ccccc12)N1CCC[C@H]1c1ccccc1` [US10919885, Compound No. 438]: the IC50 (in test [1]; against Stearoyl-CoA desaturase) was above 45 µM in each case.
For `O=C(c1cc(-c2ccc3c(c2)CCO3)on1)N1CCCC1c1ccncn1` (stereo not drawn) [US10919885, Compound No. 440], the IC50 (in test [1]; on Stearoyl-CoA desaturase) was above 45 µM each time.
